# In patent US10968214B2, “KRas G12C inhibitors” (Eli Lilly and Company, priority 2018, dated 2021):
# Values joined by “and” are separate entries in the source; they are usually repeats but may differ in a detail not shown here. Equal values may be shown once. Read-outs that look alike come from different tables or passages of the source.
# Key:
# [1] = molecular target: T1, active KRas in H358 xenograft tumors (Homo sapiens, UniProt P01116, G12C); test: In vivo target inhibition/PD, H358 xenograft, active KRas; design: species or system mouse; conditions: for inhibition at 10 mg/kg: 10 mg/kg single dose; for inhibition at 30 mg/kg: 30 mg/kg single dose
# T1 construct: from tissue; host or cells: H358 xenograft tumours from nude mice
# T1 sequence (P01116 1-188 isoform P01116-2 G12C): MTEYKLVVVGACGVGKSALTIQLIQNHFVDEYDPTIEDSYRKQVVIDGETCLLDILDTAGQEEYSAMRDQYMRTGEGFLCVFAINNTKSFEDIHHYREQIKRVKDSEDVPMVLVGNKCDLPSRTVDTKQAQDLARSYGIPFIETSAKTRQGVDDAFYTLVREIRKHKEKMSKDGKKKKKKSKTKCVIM
# Method: (§1) To evaluate in vivo target inhibition and anti-tumor efficacy of a compound, Human lung cancer cells, H358 or H2122 are implanted into nude mice xenograft tumor models. Either H358 or H2122 cells (10×10^6 in a 1:1 Matrigel® mix, 0.2 mL total volume) are implanted by subcutaneous injection in hind leg of nude female mice (Harlan Laboratories). A total of 5 mice each group are used for efficacy study, and a total of 3-4 mice each group are used for target engagement and PD study. Treatment is initiated with oral administration (gavage) of a test compound or vehicle (20% Captisol®, 25 mM phosphate, pH 2.0 in 0.2 mL volume when the tumor size reaches approximately […]. Tumor growth and body weight are monitored over time to evaluate efficacy and signs of toxicity. Bidimensional measurements of tumors are performed twice a week and tumor volumes are calculated based on mid-axis length and mid-axis width. Tumor volume data are transformed to a log scale to equalize variance across time and treatment groups. The log volume data are analyzed with a two-way repeated measures analysis of variance by time and treatment using the mixed procedures in SAS software (version 8.2). The correlation model for the repeated measures is spatial power. Treated groups are compared to the control group at each time point. The mixed procedure is also used separately for each treatment group to calculate adjusted means and standard errors at each time point. Both analyses account for the autocorrelation within each animal. The adjusted means and standard errors are plotted for each treatment group versus time.
# For in vivo target inhibition and PD analysis, tumors are ground by mortar and pestle on dry ice and tumor fragments are added to 800 μL of lysis buffer containing 1% Triton X100, 25 mM Tris pH 7.5, 150 mM NaCl, 1 mM EDTA, and 1 mM EGTA with Halt protease and phosphatase inhibitor cocktail (Thermo Scientific, cat. no. 1861281) in lysing matrix D tubes (MP Biomedical®, cat. no. 6913-500) with one additional large bead (MP Biomedical® ¼″ ceramic sphere bead cat. no. 6540-412) per tube. Tumor fragments are homogenized in a Thermo Bio101® fast prep (FP120) at setting 4 for […] while cold for a total of 2 times. Lysates are spun at 14,000 rpm for 10 min at 4° C. to clarify. Protein estimation is done on the lysate supernatant using a BioRad Dc® protein assay and lysates are diluted in complete lysis/binding buffer from the Ras GTPase Chemi ELISA Kit® (Active Motif, cat. no. 52097). The active KRas ELISA was performed as follows: Glutathione-coated ELISA wells were incubated with diluted RAF1-GST in complete lysis/binding buffer for 1 hr at 4° C. with gentle agitation. Wells are washed 3 times with wash buffer and 100 μg of lysates are added to each well and incubated at RT for 1 hr with mild agitation. The wells are washed an additional 3 times, then primary antibody, diluted in antibody binding buffer, is added to each well. The plates are incubated for 1 hr. The wells are washed 3 more times before adding HRP-conjugated secondary antibody, diluted in antibody binding buffer, to each well. The plates are incubated at RT for 1 hr. ELISA wells are washed 4 times, chemiluminescent reagents is added and then luminescence is read. For pERK Meso Scale Discovery ELISA, 25 μg of protein containing 0.1% SDS is used; for pMEK Meso Scale Discovery ELISA, 50 μg of protein without SDS is used. Meso Scale Discovery Whole Cell Lysate Kits for pERK and pMEK are provided by Meso Scale Discovery.
# The tumor samples are collected 4 hr post a single dose. The tumor lysates are prepared and the inhibition of pERK, pMEK, and active KRas is measured as described above.
# After a single dose, the tumor samples are harvested at 2, 4, 8, 12 and 24 hr post doing. The tumor lysates are prepared and the inhibition of pERK, pMEK, and active KRas is measured as described above.
# H2122 xenograft = test: Anti-tumor growth activity, lung cancer H2122 xenograft mouse model; format: in vivo; conditions: for Tumor Growth Inhibition (%) or Regression (−%): H2122 Lung
# Method: as §1
# H2122 lung tumor cells (10×10^6) are implanted by subcutaneous injection in hind leg of nude female mice (Taconic Biosciences). A total of 5 mice each group are used for efficacy study.
# EL2661 (PDX) = test: Anti-tumor growth activity, EL2661 lung PDX; format: in vivo; conditions: 28 Day, negative = regression
# SW837 xenograft = test: Anti-tumor growth activity, SW837 colorectal xenograft; format: in vivo; conditions: for Tumor Growth Inhibition (%) or Regression (−%): 28 Day, negative = regression
# CT-26-H4/KRas G12C = CT-26-H4/KRas G12C mouse syngeneic model, immuno-therapy combination; format: in vivo; conditions: Example 1 30 mg/kg BID × 21 PO, PD-L1 antibody 500 ug/mouse Q7D × 3 IP, PD-1 antibody 250 ug/mouse BIW × 3 IP
# Source text: A mouse syngeneic model is used to evaluate the effects of KRas G12C inhibition and immuno-therapy combination. In this model, the KRas G12D mutation is converted to KRas G12C mutation by CRISPR knock-in in the CT-26 cell line, a mouse colorectal tumor cell line. The KRas G12C knock-in is confirmed by genetic and functional characterization. The engineered cell line is named CT-26-H4/KRas G12C. These cells are implanted to the Balb/c mice, and the compound treatment is started 6 days post tumor cell implantation. PD-1 and PD-L1 inhibitors are known in the art and include durvalumab, pembrolizumab, and nivolumab. […] After 3 weeks, compound treatment is stopped and all tumors in monotherapy groups with the exception of 1 animal in the anti-PD-1 group started to regrow. However, the tumors in the two combination groups have no signs of regrowth.
# [2] = NCI-H358, mouse, 4 hr post dose, read-out: % Inhibition Active KRas
# [3] = NCI-H358, mouse, time course, 2 hr, read-out: % Inhibition Active KRas
# [4] = NCI-H358, mouse, time course, 4 hr, read-out: % Inhibition Active KRas
# [5] = NCI-H358, mouse, time course, 8 hr, read-out: % Inhibition Active KRas
# [6] = NCI-H358, mouse, time course, 12 hr, read-out: % Inhibition Active KRas
# [7] = NCI-H358, mouse, time course, 24 hr, read-out: % Inhibition Active KRas
structure (smiles),measurement,setting,value
"C=CC(=O)N1CCN(c2ncnc3c(F)c(-c4ccc(F)c5sc(N)nc45)c(Cl)cc23)CC1 [Example 1, 1-{4-[7-(2-Amino-7-fluoro-1,3-benzothiazol-4-yl)-6-chloro-8-fluoroquinazolin-4-yl]piperazin-1-yl}prop-2-en-1-one]",inhibition at 1 mg/kg,"[1]; NCI-H358, mouse, 1 mg/kg single dose, 4 hr post dose",-1.9%
same,inhibition at 3 mg/kg,"[1]; NCI-H358, mouse, 3 mg/kg single dose, 4 hr post dose",-2.9%
same,inhibition at 10 mg/kg,[1]; [2],40.9%
same,inhibition at 10 mg/kg,"[1]; NCI-H358, mouse, from 2-24 hr, read-out: active Kras inhibition",21 to 61%
same,inhibition at 30 mg/kg,[1]; [2],83.2%
same,inhibition at 30 mg/kg,"[1]; NCI-H358, mouse, from 2-24 hr, read-out: active KRas inhibition",29 to 70%
same,inhibition at 100 mg/kg,"[1]; NCI-H358, mouse, 100 mg/kg single dose, 4 hr post dose",87.4%
same,inhibition at 10 mg/kg,[1]; [3],26.1%
same,inhibition at 10 mg/kg,[1]; [4],32.9%
same,inhibition at 10 mg/kg,[1]; [5],30%
same,inhibition at 10 mg/kg,[1]; [6],61.1%
same,inhibition at 10 mg/kg,[1]; [7],21.5%
same,inhibition at 30 mg/kg,[1]; [3],70.4%
same,inhibition at 30 mg/kg,[1]; [4],65%
same,inhibition at 30 mg/kg,[1]; [5],66.5%
same,inhibition at 30 mg/kg,[1]; [6],28.7%
same,inhibition at 30 mg/kg,[1]; [7],37.7%
same,EC50,"[1]; plasma exposure by mass spectrum, read-out: plasma concentration to achieve 50% target inhibition (TEC50), active KRas",574 nM
same,"dose to achieve 50% target inhibition (TED50), active KRas","[1]; single dose, 4 hr",11.2 mg/kg
same,Tumor Growth Inhibition (%) or Regression (−%),"H2122 xenograft; 30 mg/kg BID, 28 Day, oral, negative = regression",72.97%
same,Tumor Growth Inhibition (%) or Regression (−%),"H2122 xenograft; 30 mg/kg QD, 28 Day, oral, negative = regression, 30 mg/kg",77.17% and 77.2%
same,Tumor Growth Inhibition (%) or Regression (−%),"H2122 xenograft; 100 mg/kg QD, 28 Day, oral, negative = regression, 100 mg/kg",91.06% and 91.1%
same,Tumor Growth Inhibition (%) or Regression (−%),H2122 xenograft; Example 1 30 mg/kg QDx28,77.2
same,Tumor Growth Inhibition (%) or Regression (−%),H2122 xenograft; Example 1 100 mg/kg QDx28,−1.4
same,animal body weight loss,"H2122 xenograft; H2122 xenograft mice, 30 mg/kg once or twice daily or 100 mg/kg once daily for 28 days, oral",No significant animal body weight loss was observed
same,Tumor Growth Inhibition (%) or Regression (−%),EL2661 (PDX); 10 mg/kg QD,46.5%
same,Tumor Growth Inhibition (%) or Regression (−%),EL2661 (PDX); 20 mg/kg QD,58.6%
same,Tumor Growth Inhibition (%) or Regression (−%),EL2661 (PDX); 30 mg/kg QD,97.6%
same,Tumor Growth Inhibition (%) or Regression (−%),EL2661 (PDX); 50 mg/kg QD,−8.6%
same,Tumor Growth Inhibition (%) or Regression (−%),SW837 xenograft; 15 mg/kg BID,−17%
same,Tumor Growth Inhibition (%) or Regression (−%),SW837 xenograft; 30 mg/kg BID,−46.1%
same,Tumor Growth Inhibition (%) or Regression (−%),SW837 xenograft; 30 mg/kg QD,−10.8%
same,In Vivo Anti-Tumor Activities,SW837 xenograft; Example 1 30 mg/kg QDx28,−51.8
same,Complete Response (% CR),CT-26-H4/KRas G12C; 40 days post treatment,0%
same,Complete Response (CR)/group mice,CT-26-H4/KRas G12C; 40 days post treatment,0/10
same,% Tumor Growth Inhibition,CT-26-H4/KRas G12C; End of treatment at day 28,96%
same,Complete Response (% CR),CT-26-H4/KRas G12C; End of treatment at day 28,10%
same,Complete Response (CR)/group mice,CT-26-H4/KRas G12C; End of treatment at day 28,1/10
